Results taken from US12391695B2, “PRMT5 inhibitors” (Lupin Limited, priority 2019, dated 2025).
pIC50: −log10 of the molar value. Where two headings read alike, the source gives them in different places.

Columns and labels:
Z-138 cells = test: Anti-cancer assay (Z-138), cell viability by CellTiterGlo; format: cell-based; details: Homo sapiens, 96 h treatment, read-out: IC50 (activity range), inhibition of cell viability; for IC50: range with mixed units pM/nM, units kept in the value
Description: Z-138 cells were seeded at a density of 2000-3000 cells per well in culture media (IMDM+10% FBS). PANC-1 (ATCC, CRL-1469™) and MIA PaCa-2 (ATCC, CRL-1420™) cells were seeded at a density of 200-300 cells per well in culture media (DMEM+10% FBS). Cells were seeded in opaque, flat bottomed tissue culture grade 96-well plates and Z-138 cells (suspension) were seeded and treated on the same day with various concentrations of test compounds. PANC-1 and MIA PaCa-2 cells, being adherent, were kept for overnight settlement at standard cell culture conditions (37° C., 5% CO2). On the following day, cells were treated with various concentrations of test compounds. Cells were treated with test compounds for a period of 96 h, 7 days and 10 days, for Z-138 cells, PANC-1 cells and MIA PaCa-2 cells, respectively. Cell viability was assessed using CellTiterGlo™ (Promega, USA) as per manufacturer's instructions. Relative Light Units (RLU) were read in Synergy™ 2 reader (Biotek, USA). The assay measures cellular ATP as an indicator of cell viability. RLU is proportional to the number of viable cells in the respective well. % inhibition of cell viability was calculated relative to the vehicle control samples containing media with 0.1% DMSO alone as per the formula below. (Avg. of Untreated Control−Avg. of Test)×100 Avg. Of Untreated Control
The IC50 values of individual compounds were calculated with Non Linear Regression Analysis using Graph Pad Prism (Graph Pad software, Inc, USA). • Anti-Cancer Assay (Z-138)

PRMT5:MEP50 = PRMT5:MEP50 (Homo sapiens, UniProt O14744); test: PRMT5 biochemical assay (HTRF, biotinylated H4R3 substrate), protocols 1 and 2; details: 1 μM SAM, 50 nM biotinylated H4R3, protocol 1 or 2 not given, read-out: IC50 (activity range), inhibition of PRMT5
Chain of PRMT5:MEP50 (O14744 whole entry, the tested form may be a part): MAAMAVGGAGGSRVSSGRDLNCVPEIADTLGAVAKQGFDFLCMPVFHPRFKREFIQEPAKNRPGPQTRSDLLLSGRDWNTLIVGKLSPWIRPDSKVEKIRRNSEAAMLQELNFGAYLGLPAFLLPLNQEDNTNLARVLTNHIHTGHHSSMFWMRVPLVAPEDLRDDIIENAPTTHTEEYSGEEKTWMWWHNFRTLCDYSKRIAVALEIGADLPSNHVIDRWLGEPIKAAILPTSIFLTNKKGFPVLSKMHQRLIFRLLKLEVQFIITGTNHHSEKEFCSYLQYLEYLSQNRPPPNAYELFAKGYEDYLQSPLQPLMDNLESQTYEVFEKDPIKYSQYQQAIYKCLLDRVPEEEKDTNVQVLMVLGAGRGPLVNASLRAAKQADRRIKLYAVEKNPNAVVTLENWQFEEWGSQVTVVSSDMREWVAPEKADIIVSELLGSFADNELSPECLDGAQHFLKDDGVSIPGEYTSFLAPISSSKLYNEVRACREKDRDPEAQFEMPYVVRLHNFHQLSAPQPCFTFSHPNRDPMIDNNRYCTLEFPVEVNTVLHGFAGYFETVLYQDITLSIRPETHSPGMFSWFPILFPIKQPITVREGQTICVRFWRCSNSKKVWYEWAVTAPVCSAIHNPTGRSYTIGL
Chain of PRMT5:MEP50 (Q9BQA1 whole entry partner, the tested form may be a part): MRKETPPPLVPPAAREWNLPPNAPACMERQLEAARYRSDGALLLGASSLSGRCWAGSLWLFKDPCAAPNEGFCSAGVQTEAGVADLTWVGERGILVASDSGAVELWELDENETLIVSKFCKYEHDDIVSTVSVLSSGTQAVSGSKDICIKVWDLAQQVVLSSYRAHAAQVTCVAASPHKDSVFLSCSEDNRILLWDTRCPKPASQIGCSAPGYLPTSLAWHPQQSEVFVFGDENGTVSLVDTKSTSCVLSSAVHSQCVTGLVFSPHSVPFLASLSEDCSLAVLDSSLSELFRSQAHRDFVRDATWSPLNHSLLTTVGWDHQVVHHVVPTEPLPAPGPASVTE
Description: (§1) Inhibitory effect of compounds on PRMT5 was assessed using HTRF detection technology in biochemical assay. Biotinylated H4R3 (residues 1-21) was used as a substrate. Compounds were pre-incubated with 15-25 ng PRMT5:MEP50 per well of a 384-well plate for 30 min at room temperature in the assay buffer containing 20 mM Bicine, pH 7.6, 25 mM NaCl, 2 mM DTT, 0.01% Chicken albumin and 0.01% Tween-20. Reaction was initiated by adding 1 μM of SAM and 50 nM biotinylated H4R3. Total assay volume was 15 μL. Reaction was continued for 120 min at room temperature. Then detection solution containing Streptavidin-Eu cryptate, anti-rabbit IgG-XL-665, Histone H4R3 Dimethyl Symmetric (H4R3me2s) Polyclonal Antibody, all prepared in HTRF detection buffer was added and further incubated for 30 min at room temperature. HTRF signal was recorded in PHERAStar microplate reader. Ratio of signal obtained at 665 nm and 620 nm was used to compute the percent inhibition of compound as follows % Inhibition=100−((Test Ratio−Negative control Ratio)/(Positive control Ratio−Negative control Ratio)*100) where Positive control=PRMT5+SAM+H4R3 Negative control=PRMT5+H4R3 Biochemical Assay Protocol 2
as §1, with “2.5” for “15-25”, “4 h” for “120 min”, “control=PRMT5+H4R3” for “control=PRMT5+H4R3 Biochemical Assay Protocol 2”

SDMA = SDMA inhibition assay in Z-138 cells (ELISA with anti-SDMA antibody); format: cell-based; details: Homo sapiens, Z-138, 48 h, 48 h treatment; for pIC50: read-out: IC50 (activity range), SDMA inhibition; for IC50: range with mixed units pM/nM, units kept in the value
Description: Z-138 cells (ATCC, CRL-3001™) were seeded at a density of 1 million cells/well in transparent, flat bottomed tissue culture grade 48-well plates. Cells were treated with various concentration of test compounds for a period of 48 h. Cell lysate was prepared using 1× CST Lysis buffer (Cell Signaling Technology, USA) and 500 ng/well/50 μL of lysate in pH 9.6 carbonate buffer was coated on 96-well Maxisorb plate and incubated overnight at 4° C. The plate was washed twice in 1×PBS containing 0.05% Tween 20 and blocked in 1% BSA for 1 h at ambient temperature. Further, the plate was incubated first with primary antibody (anti-SDMA antibody; CST #13222s) at ambient temperature for 2 h and then with HRP-conjugated secondary antibody at ambient temperature for 1 h with 2 intermittent washing steps in between.
For luminiscence based detection, HRP substrates (substrate A+substrate B in a 1:1 proportion) were added followed by luminiscence reading after 30 min in Synergy™ 2 reader (Biotek, USA).
For absorbance based detection, TMB substrate was added followed by addition of STOP solution (2N H2SO4) post colour development and absorbance (excitation 450 nm and emission 540 nm) was measured in Synergy™ 2 reader (Biotek, USA).
% inhibition of SDMA was calculated relative to the vehicle control samples containing media with 0.1% DMSO alone as per the formula below. (Avg. of Untreated Control−Avg. of Test)×100 Avg. Of Untreated Control
The IC50 values of individual compounds were calculated with Non Linear Regression Analysis using Graph Pad Prism (Graph Pad software, Inc, USA).

pIC50 (Z-138 cells)	pIC50 (PRMT5:MEP50)	pIC50 (SDMA)	IC50 (Z-138 cells) [pM]	IC50 (SDMA) [pM]	Structure (SMILES)
< 9.00	9.02 to 9.60	7.30 to 8.96			Nc1ncnc2c1ccn2[C@@H]1C=C(COc2cc(C(F)F)c(F)c3c2CNCC3)[C@@H](O)[C@H]1O [Compound 12, (1S,2R,5R)-5-(4-amino-7H-pyrrolo[2,3-d]pyrimidin-7-yl)-3-(((6-(difluoromethyl)-5-fluoro-1,2,3,4-tetrahydroisoquinolin-8-yl)oxy)methyl)cyclopent-3-ene-1,2-diol]
< 9.00	9.02 to 9.60	7.30 to 8.96			Nc1cc(=O)n([C@@H]2C=C(COc3cc(F)c4cc(Cl)c(N)nc4c3)[C@@H](O)[C@H]2O)cn1 [Compound 17, 6-amino-3-((1R,4R,5S)-3-(((2-amino-3-chloro-5-fluoroquinolin-7-yl)oxy)methyl)-4,5-dihydroxycyclopent-2-en-1-yl)pyrimidin-4 (3H)-one]
< 9.00	< 9.02	7.30 to 8.96			Cc1cc(=O)n([C@@H]2C=C(COc3cc(F)c4cc(Cl)c(N)nc4c3)[C@@H](O)[C@H]2O)cn1 [Compound 18, 3-((1R,4R,5S)-3-(((2-amino-3-chloro-5-fluoroquinolin-7-yl)oxy)methyl)-4,5-dihydroxycyclopent-2-en-1-yl)-6-methylpyrimidin-4 (3H)-one]
< 9.00	< 9.02			100 to 1000	Nc1nc2cc(OCC3=C[C@@H](n4cnc(N)c(F)c4=O)[C@H](O)[C@@H]3O)cc(F)c2cc1Cl [Compound 19, 6-amino-3-((1R,4R,5S)-3-(((2-amino-3-chloro-5-fluoroquinolin-7-yl)oxy)methyl)-4,5-dihydroxycyclopent-2-en-1-yl)-5-fluoropyrimidin-4 (3H)-one]
< 9.00	9.02 to 9.60	7.30 to 8.96			Nc1ncnc2c1ccn2[C@@H]1C=C(CCc2cc(Cl)c(F)c3c2CNCC3)[C@@H](O)[C@H]1O [Compound 20, (1S,2R,5R)-5-(4-amino-7H-pyrrolo[2,3-d]pyrimidin-7-yl)-3-(2-(6-chloro-5-fluoro-1,2,3,4-tetrahydroisoquinolin-8-yl)ethyl)cyclopent-3-ene-1,2-diol]

Further lines, the compound ahead of its results:

Structure (SMILES)	pIC50 (Z-138 cells)	pIC50 (PRMT5:MEP50)	pIC50 (SDMA)	IC50 (Z-138 cells) [pM]	IC50 (SDMA) [pM]
Nc1ncnc2c1ccn2[C@@H]1C=C(CCc2ccc(F)c3c2CNCC3)[C@@H](O)[C@H]1O [Compound 9, (1S,2R,5R)-5-(4-amino-7H-pyrrolo[2,3-d]pyrimidin-7-yl)-3-(2-(5-fluoro-1,2,3,4-tetrahydroisoquinolin-8-yl)ethyl)cyclopent-3-ene-1,2-diol]	< 9.00	9.02 to 9.60	7.30 to 8.96		
Nc1ncnc2c1ccn2[C@@H]1C=C(CCc2cc(C(F)F)cc3c2CNCC3)[C@@H](O)[C@H]1O [Compound 10, (1S,2R,5R)-5-(4-amino-7H-pyrrolo[2,3-d]pyrimidin-7-yl)-3-(2-(6-(difluoromethyl)-1,2,3,4-tetrahydroisoquinolin-8-yl)ethyl)cyclopent-3-ene-1,2-diol]		9.02 to 9.60		101 to 1000	100 to 1000
Nc1ncnc2c1ccn2[C@@H]1C=C(CCc2ccc(C(F)F)c3c2CNCC3)[C@@H](O)[C@H]1O [Compound 11, (1S,2R,5R)-5-(4-amino-7H-pyrrolo[2,3-d]pyrimidin-7-yl)-3-(2-(5-(difluoromethyl)-1,2,3,4-tetrahydroisoquinolin-8-yl)ethyl)cyclopent-3-ene-1,2-diol]	< 9.00	9.02 to 9.60	7.30 to 8.96		
Nc1ncnc2c1ccn2[C@@H]1C=C(CCc2cc(C(F)F)c(F)c3c2CNCC3)[C@@H](O)[C@H]1O [Compound 13, (1S,2R,5R)-5-(4-amino-7H-pyrrolo[2,3-d]pyrimidin-7-yl)-3-(2-(6-(difluoromethyl)-5-fluoro-1,2,3,4-tetrahydroisoquinolin-8-yl)ethyl)cyclopent-3-ene-1,2-diol]		9.02 to 9.60	7.30 to 8.96	101 to 1000	
Cc1ncnc2c1ccn2[C@@H]1C=C(CCc2cc(C(F)F)cc3c2CNCC3)[C@@H](O)[C@H]1O [Compound 14, (1S,2R,5R)-3-(2-(6-(difluoromethyl)-1,2,3,4-tetrahydroisoquinolin-8-yl)ethyl)-5-(4-methyl-7H-pyrrolo[2,3-d]pyrimidin-7-yl)cyclopent-3-ene-1,2-diol]		9.02 to 9.60	7.30 to 8.96	101 to 1000	
Cc1ncnc2c1ccn2[C@@H]1C=C(CCc2cc(C(F)F)c(F)c3c2CNCC3)[C@@H](O)[C@H]1O [Compound 15, (1S,2R,5R)-3-(2-(6-(difluoromethyl)-5-fluoro-1,2,3,4-tetrahydroisoquinolin-8-yl)ethyl)-5-(4-methyl-7H-pyrrolo[2,3-d]pyrimidin-7-yl)cyclopent-3-ene-1,2-diol]		9.02 to 9.60		101 to 1000	100 to 1000
Nc1ncnc2c1ccn2[C@@H]1C=C(CCc2cc(F)c(F)c3c2CNCC3)[C@@H](O)[C@H]1O [Compound 21, (1S,2R,5R)-5-(4-amino-7H-pyrrolo[2,3-d]pyrimidin-7-yl)-3-(2-(5,6-difluoro-1,2,3,4-tetrahydroisoquinolin-8-yl)ethyl)cyclopent-3-ene-1,2-diol]		9.02 to 9.60	7.30 to 8.96	101 to 1000	
Nc1nc2cc(CC[C@@]34C[C@@H]3[C@@H](n3ccc5c(N)ncnc53)[C@H](O)[C@@H]4O)cnc2cc1Cl [Compound 24, (1R,2R,3S,4R,5S)-1-(2-(6-Amino-7-chloro-1,5-naphthyridin-3-yl)ethyl)-4-(4-amino-7H-pyrrolo[2,3-d]pyrimidin-7-yl)bicyclo[3.1.0]hexane-2,3-diol]	< 9.00	9.02 to 9.60	7.30 to 8.96		
Cc1cn([C@@H]2C=C(CCc3cc(C(F)F)c(F)c4c3CNCC4)[C@@H](O)[C@H]2O)c2ncnc(N)c12 [Compound 25, (1S,2R,5R)-5-(4-amino-5-methyl-7H-pyrrolo[2,3-d]pyrimidin-7-yl)-3-(2-(6-(difluoromethyl)-5-fluoro-1,2,3,4-tetrahydroisoquinolin-8-yl)ethyl)cyclopent-3-ene-1,2-diol]	< 9.00	9.02 to 9.60	7.30 to 8.96		
